US20080260770A1, “Use of Tellurium Compounds as Adjuvants” (BIOMAS LTD., priority 2004, published 2008)
Strand notation (5' to 3'): a small letter for the sugar, then the base; units joined by * are phosphorothioate-linked, units joined directly phosphodiester-linked; [ ] holds rarer units or linkages, { } end groups; capitals alone tell only the bases. d = 2'-deoxy (DNA)

What was measured:
[1] = system: freshly isolated peripheral blood human monocytes; assay: IL-12 p40 production by human monocytes (ELISA); assay type: cell-based; conditions: adherent PBMCs from a healthy donor, 0.5-2 μg/ml PBS, 24 hours incubation, FIG. 1
Description: Adherent Peripheral Blood Mononuclear Cells (PBMCs) from a tuberculin-negative healthy donor were incubated with AS101 or AS103 (0.5-2 μg/ml PBS) or E. coli lipopolysaccharide (LPS) (1 ng/ml PBS; Sigma) for 24 hours. Supernatants were collected after 28 hours for analysis of IL-12 production. Cell supernatants were determined using commercially available Enzyme-Linked Immunosorbent Assay (ELISA) kits (R&D Systems). Supernatants were tested for IL-12p40 by ELISA kit (Endogene).

[2] = system: Murine bone marrow-derived dendritic cells; assay: IL-12 p40 production by murine bone marrow-derived dendritic cells (ELISA); assay type: cell-based, mice; conditions: DC 10^6 cells/ml, 0.5-10 μg/ml PBS, supernatants after 24 hours, FIG. 2
Description: Murine bone marrow-derived dendritic cells (DC) were prepared by culturing bone marrow cells from the femur and tibia of mice in RPMI medium supplemented with 10% supernatant from a granulocyte-monocyte colony-stimulating factor-secreting cell line.
On day 7 of culture, cells were collected, washed, and resuspended in RPMI medium. DC (10^6 cells/ml) were cultured with AS101 or AS103 (0.5-10 μg/ml PBS), or with CpG. Supernatants were collected after 24 hours for analysis of IL-12 p40 production. Cell supernatants were determined using commercially available ELISA kits (R&D Systems).

[3] = system: KLH-specific IgG1 and IgG2a; assay: Serum antibody responses to KLH in immunized mice (ELISA titers); assay type: in vivo
Description: Serum was obtained from mice immunized with depyrogenated keyhole limpet hemocyanin (KLH) (5 μg; Calbiochem, La Jolla, Calif.); with KLH plusphosphorothioate-stabilized oligodeoxynucleotide-containing CpG motifs (CpG-ODN) (5′-GCTAGACGTTAGCGT-3′), synthesized by Sigma-Genosys Ltd., Cambridge, United Kingdom; with KLH, plus CpG, plus AS101 (10 μg/ml PBS); or with Dulbecco's PBS alone (Sigma, Poole, United Kingdom), each in a final volume of 50 μl PBS.
On day 7 after immunization, mice were sacrificed by cervical dislocation, and serum and popliteal lymph nodes were collected. Titers of KLH-specific IgG1 and IgG2a in the serum of the immunized mice were determined by ELISA, and analysed for the presence of antibody subclasses IgG1 and IgG2a.

rats = conditions: intravenous and intramuscular administration; cited from earlier work

With Cl[Te]1(Cl)OCCO1 [AS 103] the “IL-12 p40 production” value [1] was “very low response”.

With Cl[TeH]1(Cl)(Cl)OCCO1 [AS101, ammonium trichloro(dioxyethylene-O,O′)tellurate] the “IL-12 p40 production” value [2] was “potent inducer”, the “KLH-specific IgG1 response to KLH plus CpG on addition of the compound” value ([3]; 10 μg/ml PBS added to KLH plus CpG, day 7 after immunization, FIG. 3a) was “no further increase” and the “production of KLH-specific IgG2a in response to KLH plus CpG on addition of the compound” value ([3]; 10 μg/ml PBS added to KLH plus CpG, day 7 after immunization, FIG. 3b) was “significantly increased”. For the same compound, the “LD50 values relative to the immunologically effective dose” value (rats) was 500-1000 folds and the “IL-12 p40 production” value [1] was “potent inducer”.

With “CpG: phosphorothioate-stabilized oligodeoxynucleotide-containing CpG motifs (CpG-ODN) (5′-GCTAGACGTTAGCGT-3′), synthesized by Sigma-Genosys (DNA dG*dC*dT*dA*dG*dA*dC*dG*dT*dT*dA*dG*dC*dG*dT) [reference compound]” the “KLH-specific antibody titer (IgG1 and IgG2a) on use together with KLH” value ([3]; KLH 5 μg plus CpG versus KLH alone, day 7, FIGS. 3a and 3b) was “increased”.
